Assay results as given in patent publication US20160281125A1, “ANTIMICROBIAL COMPOUND SUSCEPTIBILITY TEST” (priority 2013, published 2016).

Legend:
Experiment in all cases: Selective lysis test, OD600 turbidity (Example 1)
K. pneumo KPC 4121 = format: cell-based, Klebsiella pneumoniae
Method: (§1) An isolated colony from an overnight Tryptocase Soy Agar (TSA) plate of each bacterial strain was suspended in 1 ml Tryptocasc Soy Broth (TSB) in a 5 ml BD polystyrene round bottom tube. TSB cultures were incubated shaking at 37° C. overnight. Ten of the overnight culture was inoculated into lml TSB and incubated shaking at 37° C. for three hours. Two […] aliquots of each log-phase culture were then transferred to two 2 ml Eppendorf microcentrifuge tubes. One tube contained 5000 of Normal Saline (BD); the second tube contained 5000 Normal Saline with meropenem at 10 μg/ml (final concentration of meropenem of 6.67 10 μg/ml). Tubes were inverted and then incubated at 37° C. stagnant for thirty minutes. Then […] of lysis buffer (0.5% SDS in PSB) (final concentration of SDS of 0.125%) was added to each tube and the tubes were vortexed for 5 seconds. Post incubation, all tubes were spun at 10000 G for 5 minutes. Supernatant was decanted and the pellet resuspended in Normal Saline. Tubes were vortexed again. OD600 was measured using Eppendorf uvettes in a spectrophotometer. The delta between the OD600 of the normal saline control and the OD600 for the test sample exposed to meropenem in normal saline was used to determine susceptibility of the bacterial strain to meropenem.
(§2) The tested resistant strains were Klebsiella pneumoniae carbapenemase (KPC)-producing bacteria (abbreviated “KPC”), KPC-producing Klebsiella oxytoca (abbreviated “KPC K. oxy), and Klebsiella pneumoniae producing Metallo-beta-lactamase-1 (NDM-1) (abbreviated “NDM”).

K. pneumo KPC 1705 = format: cell-based, Klebsiella pneumoniae
Method: as §1, §2

K. pneumo NDM 2146 = format: cell-based, Klebsiella pneumoniae
Method: as §1, §2

K. pneumo KPC 41217 = format: cell-based, Klebsiella pneumoniae
Method: as §1, §2

K. pneumo KPC 12213 = format: cell-based, Klebsiella pneumoniae
Method: as §1, §2

K. pneumo KPC 65707 = format: cell-based, Klebsiella pneumoniae
Method: as §1, §2

K. pneumo KPC KPC12 = format: cell-based, Klebsiella pneumoniae
Method: as §1, §2

E. clo 13047 = format: cell-based, Enterobacter cloacae
Method: as §1

E. aero 13048 = format: cell-based, Enterobacter aerogenes
Method: as §1

[1] = OD600 vs control without meropenem
[2] = meropenem 10 μg/ml, 30 min, SDS lysis buffer + vortex

Structure (SMILES): C[C@@H](O)[C@H]1C(=O)N2C(C(=O)O)=C(S[C@@H]3CN[C@H](C(=O)N(C)C)C3)[C@H](C)[C@H]12 [meropenem]
- R or S (K. pneumo KPC 4121): R
- % Change (K. pneumo KPC 4121; [1]): −3%
- Mero OD600 (K. pneumo KPC 4121; [2]): 1.734
- R or S (K. pneumo KPC 1705): R
- % Change (K. pneumo KPC 1705; [1]): −32%
- Mero OD600 (K. pneumo KPC 1705; [2]): 1.65
- R or S (K. pneumo NDM 2146): R
- % Change (K. pneumo NDM 2146; [1]): 18%
- Mero OD600 (K. pneumo NDM 2146; [2]): 1.576
- R or S (K. pneumo KPC 41217): R
- % Change (K. pneumo KPC 41217; [1]): 5%
- Mero OD600 (K. pneumo KPC 41217; [2]): 1.764
- R or S (K. pneumo KPC 12213): R
- % Change (K. pneumo KPC 12213; [1]): −5%
- Mero OD600 (K. pneumo KPC 12213; [2]): 1.454
- R or S (K. pneumo KPC 65707): R
- % Change (K. pneumo KPC 65707; [1]): 12%
- Mero OD600 (K. pneumo KPC 65707; [2]): 1.887
- R or S (K. pneumo KPC KPC12): R
- % Change (K. pneumo KPC KPC12; [1]): 2%
- Mero OD600 (K. pneumo KPC KPC12; [2]): 1.844
- R or S (E. clo 13047): S (a percentage change of greater than about 85% indicates a strain is susceptible)
- % Change (E. clo 13047; [1]): 95%
- Mero OD600 (E. clo 13047; [2]): 0.06
- R or S (E. aero 13048): S (a percentage change of greater than about 85% indicates a strain is susceptible)
- % Change (E. aero 13048; [1]): 97%
- Mero OD600 (E. aero 13048; [2]): 0.077
